{"source": "patent US6914045B2", "about": "“Glycopeptide antibiotics” (Wyeth Holdings Corporation, priority 2001, dated 2005)", "test_in_all_cases": "in vitro antibacterial evaluation, MIC by broth dilution", "type_in_all_cases": "cell-based", "key": {"Staphylococcus sp.": {"test_system": "Staphylococcus sp.", "conditions": "broth dilution, 18 hours at 35° C.", "method_in_brief": "(§1)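 Inoculum 5×10^5 CFU/mL; concentrations 64 to 0.06 μg/mL; MIC defined as lowest inhibitory level. Conducted by broth dilution under NCCLS guidelines.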"}, "Enterococcus sp.": {"test_system": "Enterococcus sp.", "conditions": "broth dilution, 18 hours at 35° C.", "method_in_brief": "as §1"}, "Streptococcus sp.": {"test_system": "Streptococcus sp.", "conditions": "broth dilution, 18 hours at 35° C.", "method_in_brief": "as §1"}, "Escherichia coli": {"test_system": "Escherichia coli", "conditions": "18 hours at 35° C."}}}
{"smiles": "CC(c1ccccc1)C1NC(=O)CNC(=O)C(CO)NC(=O)C(C(O)C2CNC(=N)N2C2OC(CO)C(O)C(O)C2O)NC(=O)C(C(O)C2CNC(=N)N2)NC(=O)C(Cc2ccc(OC3OC(CO)C(OC4OC(COCC=Cc5ccc(N(C)C)cc5)C(O)C(O)C4O)C(O)C3O)cc2)NC1=O", "note": "(stereo not shown) [Example 243]", "values": [{"measurement": "MIC Coagulase Negative Staphylococcus (GC 4547)", "setting": "Staphylococcus sp.", "result": 64, "unit": "µg/mL"}, {"measurement": "MIC Coagulase Negative Staphylococcus (GC 4548)", "setting": "Staphylococcus sp.", "result": 32, "unit": "µg/mL"}, {"measurement": "MIC Coagulase Negative Staphylococcus (GC 4549)", "setting": "Staphylococcus sp.", "result": 32, "unit": "µg/mL"}, {"measurement": "MIC Coagulase Negative Staphylococcus (GC 4551)", "setting": "Staphylococcus sp.", "result": 64, "unit": "µg/mL"}, {"measurement": "MIC Coagulase Negative Staphylococcus (GC 6257)", "setting": "Staphylococcus sp.", "result": 32, "unit": "µg/mL"}, {"measurement": "MIC Staphylococcus aureus (ATCC 29213)", "setting": "Staphylococcus sp.", "result": 64, "unit": "µg/mL"}, {"measurement": "MIC Staphylococcus aureus (GC 1131)", "setting": "Staphylococcus sp.", "result": 64, "unit": "µg/mL"}, {"measurement": "MIC Staphylococcus aureus (GC 3051)", "setting": "Staphylococcus sp.", "result": 64, "unit": "µg/mL"}, {"measurement": "MIC Staphylococcus aureus (GC 3053)", "setting": "Staphylococcus sp.", "result": 64, "unit": "µg/mL"}, {"measurement": "MIC Staphylococcus aureus (GC 4541)", "setting": "Staphylococcus sp.", "result": 64, "unit": "µg/mL"}, {"measurement": "MIC Staphylococcus aureus (GC 4542)", "setting": "Staphylococcus sp.", "result": 64, "unit": "µg/mL"}, {"measurement": "MIC Staphylococcus aureus (GC 4544)", "setting": "Staphylococcus sp.", "result": 64, "unit": "µg/mL"}, {"measurement": "MIC Staphylococcus aureus (GC 4545)", "setting": "Staphylococcus sp.", "result": 64, "unit": "µg/mL"}, {"measurement": "MIC Staphylococcus aureus-SMITH (GC 4543)", "setting": "Staphylococcus sp.", "result": 64, "unit": "µg/mL"}, {"measurement": "MIC Staphylococcus haemolyticus (GC 4546)", "setting": "Staphylococcus sp.", "result": 64, "unit": "µg/mL"}, {"measurement": "MIC Staphylococcus aureus (ATCC 29213)", "setting": "Staphylococcus sp.; strain ATCC 29213", "result": 64, "unit": "µg/mL"}, {"measurement": "MIC Staphylococcus aureus (GC 1131)", "setting": "Staphylococcus sp.; strain GC 1131", "result": 64, "unit": "µg/mL"}, {"measurement": "MIC Staphylococcus aureus (GC 3051)", "setting": "Staphylococcus sp.; strain GC 3051", "result": 64, "unit": "µg/mL"}, {"measurement": "MIC Staphylococcus aureus (GC 3053)", "setting": "Staphylococcus sp.; strain GC 3053", "result": 64, "unit": "µg/mL"}, {"measurement": "MIC Staphylococcus aureus (GC 4541)", "setting": "Staphylococcus sp.; strain GC 4541", "result": 64, "unit": "µg/mL"}, {"measurement": "MIC Staphylococcus aureus (GC 4542)", "setting": "Staphylococcus sp.; strain GC 4542", "result": 64, "unit": "µg/mL"}, {"measurement": "MIC Staphylococcus aureus-SMITH (GC 4543)", "setting": "Staphylococcus sp.; strain GC 4543", "result": 64, "unit": "µg/mL"}, {"measurement": "MIC Staphylococcus aureus (GC 4544)", "setting": "Staphylococcus sp.; strain GC 4544", "result": 64, "unit": "µg/mL"}, {"measurement": "MIC Staphylococcus aureus (GC 4545)", "setting": "Staphylococcus sp.; strain GC 4545", "result": 64, "unit": "µg/mL"}, {"measurement": "MIC Staphylococcus haemolyticus (GC 4546)", "setting": "Staphylococcus sp.; strain GC 4546", "result": 64, "unit": "µg/mL"}, {"measurement": "MIC Coagulase Negative Staphylococcus (GC 4547)", "setting": "Staphylococcus sp.; strain GC 4547", "result": 64, "unit": "µg/mL"}, {"measurement": "MIC Coagulase Negative Staphylococcus (GC 4548)", "setting": "Staphylococcus sp.; strain GC 4548", "result": 32, "unit": "µg/mL"}, {"measurement": "MIC Coagulase Negative Staphylococcus (GC 4549)", "setting": "Staphylococcus sp.; strain GC 4549", "result": 32, "unit": "µg/mL"}, {"measurement": "MIC Coagulase Negative Staphylococcus (GC 4551)", "setting": "Staphylococcus sp.; strain GC 4551", "result": 64, "unit": "µg/mL"}, {"measurement": "MIC Coagulase Negative Staphylococcus (GC 6257)", "setting": "Staphylococcus sp.; strain GC 6257", "result": 32, "unit": "µg/mL"}, {"measurement": "MIC Enterococcus avium (GC 4558)", "setting": "Enterococcus sp.", "result": 32, "unit": "µg/mL"}, {"measurement": "MIC Enterococcus faecalis (ATCC 29212)", "setting": "Enterococcus sp.", "result": ">64", "unit": "µg/mL"}, {"measurement": "MIC Enterococcus faecalis (GC 2242)", "setting": "Enterococcus sp.", "result": 64, "unit": "µg/mL"}, {"measurement": "MIC Enterococcus faecalis (GC 2691)", "setting": "Enterococcus sp.", "result": ">64", "unit": "µg/mL"}, {"measurement": "MIC Enterococcus faecalis (GC 3059)", "setting": "Enterococcus sp.", "result": ">64", "unit": "µg/mL"}, {"measurement": "MIC Enterococcus faecalis (GC 4552)", "setting": "Enterococcus sp.", "result": ">64", "unit": "µg/mL"}, {"measurement": "MIC Enterococcus faecalis (GC 4553)", "setting": "Enterococcus sp.", "result": 64, "unit": "µg/mL"}, {"measurement": "MIC Enterococcus faecalis (GC 4554)", "setting": "Enterococcus sp.", "result": ">64", "unit": "µg/mL"}, {"measurement": "MIC Enterococcus faecalis (GC 6189)", "setting": "Enterococcus sp.", "result": 64, "unit": "µg/mL"}, {"measurement": "MIC Enterococcus faecium (GC 2243)", "setting": "Enterococcus sp.", "result": 64, "unit": "µg/mL"}, {"measurement": "MIC Enterococcus faecium (GC 4556)", "setting": "Enterococcus sp.", "result": ">64", "unit": "µg/mL"}, {"measurement": "MIC Enterococcus faecium (GC 4557)", "setting": "Enterococcus sp.", "result": 32, "unit": "µg/mL"}, {"measurement": "MIC Enterococcus faecalis (ATCC 29212)", "setting": "Enterococcus sp.; strain ATCC 29212", "result": ">64", "unit": "µg/mL"}, {"measurement": "MIC Enterococcus faecium (GC 2243)", "setting": "Enterococcus sp.; strain GC 2243", "result": 64, "unit": "µg/mL"}, {"measurement": "MIC Enterococcus faecalis (GC 4552)", "setting": "Enterococcus sp.; strain GC 4552", "result": ">64", "unit": "µg/mL"}, {"measurement": "MIC Enterococcus faecalis (GC 4553)", "setting": "Enterococcus sp.; strain GC 4553", "result": 64, "unit": "µg/mL"}, {"measurement": "MIC Enterococcus faecalis (GC 4554)", "setting": "Enterococcus sp.; strain GC 4554", "result": ">64", "unit": "µg/mL"}, {"measurement": "MIC Enterococcus faecium (GC 4556)", "setting": "Enterococcus sp.; strain GC 4556", "result": ">64", "unit": "µg/mL"}, {"measurement": "MIC Enterococcus faecium (GC 4557)", "setting": "Enterococcus sp.; strain GC 4557", "result": 32, "unit": "µg/mL"}, {"measurement": "MIC Enterococcus avium (GC 4558)", "setting": "Enterococcus sp.; strain GC 4558", "result": 32, "unit": "µg/mL"}, {"measurement": "MIC Enterococcus faecalis (GC 6189)", "setting": "Enterococcus sp.; strain GC 6189", "result": 64, "unit": "µg/mL"}, {"measurement": "MIC Enterococcus faecalis (GC 2242)", "setting": "Enterococcus sp.; inoculum 5×10^5 CFU/mL, strain GC 2242", "result": 64, "unit": "µg/mL"}, {"measurement": "MIC Enterococcus faecalis (GC 2691)", "setting": "Enterococcus sp.; inoculum 5×10^5 CFU/mL, strain GC 2691", "result": ">64", "unit": "µg/mL"}, {"measurement": "MIC Enterococcus faecalis (GC 3059)", "setting": "Enterococcus sp.; inoculum 5×10^5 CFU/mL, strain GC 3059", "result": ">64", "unit": "µg/mL"}, {"measurement": "MIC Streptococcus agalactiae (GC 4564)", "setting": "Streptococcus sp.", "result": 32, "unit": "µg/mL"}, {"measurement": "MIC Streptococcus pneumoniae (ATCC 6301)", "setting": "Streptococcus sp.", "result": 32, "unit": "µg/mL"}, {"measurement": "MIC Streptococcus pneumoniae (GC 1894)", "setting": "Streptococcus sp.", "result": 8, "unit": "µg/mL"}, {"measurement": "MIC Streptococcus pneumoniae (GC 4565)", "setting": "Streptococcus sp.", "result": 16, "unit": "µg/mL"}, {"measurement": "MIC Streptococcus pyogenes (GC 4563)", "setting": "Streptococcus sp.", "result": 32, "unit": "µg/mL"}, {"measurement": "MIC Streptococcus pneumoniae (ATCC 6301)", "setting": "Streptococcus sp.; inoculum 5×10^5 CFU/mL, strain ATCC 6301", "result": 32, "unit": "µg/mL"}, {"measurement": "MIC Streptococcus pneumoniae (GC 1894)", "setting": "Streptococcus sp.; inoculum 5×10^5 CFU/mL, strain GC 1894", "result": 8, "unit": "µg/mL"}, {"measurement": "MIC Streptococcus pyogenes (GC 4563)", "setting": "Streptococcus sp.; inoculum 5×10^5 CFU/mL, strain GC 4563", "result": 32, "unit": "µg/mL"}, {"measurement": "MIC Streptococcus agalactiae (GC 4564)", "setting": "Streptococcus sp.; inoculum 5×10^5 CFU/mL, strain GC 4564", "result": 32, "unit": "µg/mL"}, {"measurement": "MIC Streptococcus pneumoniae (GC 4565)", "setting": "Streptococcus sp.; inoculum 5×10^5 CFU/mL, strain GC 4565", "result": 16, "unit": "µg/mL"}, {"measurement": "MIC Escherichia coli (ATCC 25922)", "setting": "Escherichia coli", "result": ">64", "unit": "µg/mL"}, {"measurement": "MIC Escherichia coli (GC 4559)", "setting": "Escherichia coli", "result": ">64", "unit": "µg/mL"}, {"measurement": "MIC Escherichia coli (GC 4560)", "setting": "Escherichia coli", "result": 64, "unit": "µg/mL"}]}
